In one assay the target is IDO (Homo sapiens, UniProt P14902). Description: SKOV3 kynurenine cell-based assay (IDO induced by IFN-γ). More on the design: IDO expression was induced in the SKOV3 cells by the addition of 500 ng/ml IFN-γ; endogenous in cells; host or cells: SKOV3 (human ovarian adenocarcinoma), induced with IFN-γ. The conditions noted are these: SKOV3 human ovarian adenocarcinoma cells, 500 ng/ml IFN-γ, 48 hours, 500 μM L-tryptophan; read-out: SKOV3 Kynurenine cell based assay pIC50 (converted). How it is done: (§1) Exemplary compounds of the invention were prepared, and tested to determine their effect as TDO and/or IDO inhibitors. Two different assays were employed: 1. a cell-based assay for detecting the effect of test compounds on kynurenine production in two different cancer cell types. This assay utilised cancer cells which expressed either TDO or IDO and as such was used as a means of testing compound activity at these two enzymes in a cell-based context. 2. a TDO and IDO biochemical coupled assay which utilised recombinantly produced and purified TDO and IDO enzymes in combination with the enzyme formamidase. This coupled enzyme system allowed conversion of N-formylkynurenine produced by TDO or IDO activity to kynurenine which was then quantified by fluorescence following addition of Erhlich's Reagent The protocols for these are set out below.
Sequence of IDO (P14902 whole entry): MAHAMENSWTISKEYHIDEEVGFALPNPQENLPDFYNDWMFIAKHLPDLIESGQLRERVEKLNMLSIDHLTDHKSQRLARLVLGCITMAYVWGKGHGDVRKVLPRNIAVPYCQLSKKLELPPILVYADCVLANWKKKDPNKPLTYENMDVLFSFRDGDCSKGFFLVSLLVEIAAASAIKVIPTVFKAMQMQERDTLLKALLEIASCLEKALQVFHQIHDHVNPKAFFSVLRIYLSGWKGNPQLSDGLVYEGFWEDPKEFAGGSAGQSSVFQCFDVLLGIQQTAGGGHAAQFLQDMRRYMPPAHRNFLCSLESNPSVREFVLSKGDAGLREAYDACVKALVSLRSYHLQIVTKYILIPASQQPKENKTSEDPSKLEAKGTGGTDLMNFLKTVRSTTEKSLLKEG
(§2) Cell Based Assay for Detection of Kynurenine Produced by TDO and/or IDO
(§3) A172 (human glioblastoma) and SKOV3 (human ovarian adenocarcinoma) cells were seeded in a 96 well plate at 30,000 or 40,000 cells per well respectively in phenol red-free RPMI supplemented with 10% FCS, 2 mM L-glutamine and 500 μM L-tryptophan. IDO expression was induced in the SKOV3 cells by the addition of 500 ng/ml IFN-γ. Cells were incubated at 37° C. with or without the addition of test compound. After 48 hours, the cells were removed by centrifugation and Erhlich's reagent was added to the supernatant. The Erhlich's reagent was incubated for 5 minutes before the absorbance was read at 490 nm.

The target of a further assay is TDO (Homo sapiens, UniProt P48775). Description: A172 kynurenine cell-based assay. The conditions noted are these: A172 human glioblastoma cells, 48 hours, 500 μM L-tryptophan; read-out: A172 Kynurenine cell based assay pIC50 (converted). More on the design: This assay utilised cancer cells which expressed either TDO or IDO; endogenous in cells; host or cells: A172 (human glioblastoma). On the procedure:
as §1, §2, §3

Experimental findings from US10590086B2, “Pharmaceutical compound” (IOmet Pharma Ltd., priority 2014, dated 2020) are described below.

A value given as a limit tells only on which side of the number the result lay.

Sequence of TDO (P48775 whole entry): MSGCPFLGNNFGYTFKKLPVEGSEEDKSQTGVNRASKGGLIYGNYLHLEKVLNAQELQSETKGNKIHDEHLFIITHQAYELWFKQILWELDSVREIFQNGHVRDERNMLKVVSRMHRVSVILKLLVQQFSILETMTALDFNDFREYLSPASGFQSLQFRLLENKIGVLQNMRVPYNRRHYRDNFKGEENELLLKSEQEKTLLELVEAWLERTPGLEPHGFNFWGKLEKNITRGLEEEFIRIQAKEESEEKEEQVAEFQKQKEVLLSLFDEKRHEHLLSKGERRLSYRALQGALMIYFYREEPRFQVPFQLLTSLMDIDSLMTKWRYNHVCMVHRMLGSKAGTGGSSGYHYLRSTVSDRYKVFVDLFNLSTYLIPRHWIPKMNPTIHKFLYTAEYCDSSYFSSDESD

For `COCCS(=O)(=O)N1CCN(c2cc(Cl)cc3[nH]ncc23)CC1` [Compound 64], the figures for the IC50 on IDO and on TDO were 3.24 to 31.6 µM and < 3.16 µM, respectively.
As to `NC(=O)N1CCN(c2cc(Cl)cc3[nH]ncc23)CC1` [Compound 110], the IC50 on IDO was 3.24 to 31.6 µM; at TDO it was < 3.16 µM.
`CC(=O)N1CCN(c2cc(C3CCCC3)cc3[nH]ncc23)CC1` [Compound 139]: the figures for the IC50 at IDO and on TDO were > 100 µM and 32.4 to 100 µM, respectively.
Take `O=C1NC(=O)C2(CCN(c3cc(C(F)(F)F)cc4[nH]ncc34)CC2)N1` [Compound 185]: the IC50 on IDO and on TDO was < 3.16 µM throughout.
Regarding `CC1(C)CC(c2cc(Cl)cc3[nH]ncc23)CCN1S(C)(=O)=O` (stereo not shown) [Compound 175], the IC50 is 3.24 to 31.6 µM on IDO and < 3.16 µM on TDO.
For the compound `CS(=O)(=O)N1CCCN(c2cccc3[nH]ncc23)CC1` [Compound 60], the IC50 at IDO is > 100 µM; at TDO it was 3.24 to 31.6 µM.
For the compound `O=S(=O)(Cc1ccccc1)N1CCN(c2cccc3[nH]ncc23)CC1` [Compound 13], the IC50 on IDO is 32.4 to 100 µM; at TDO, 3.24 to 31.6 µM.
Take `CN1CCN(c2cc(Cl)cc3[nH]ncc23)CC1` [Compound 95]: the IC50 on IDO was > 100 µM; at TDO, 3.24 to 31.6 µM.
As for `CC(C)(O)C(=O)N1CCC(c2cc(Cl)cc3[nH]ncc23)CC1` [Compound 191], the IC50 is > 100 µM at IDO and < 3.16 µM on TDO.
For `CC(=O)N1CCN(c2cc(Cl)cc3[nH]ncc23)CC12CC2` [Compound 93] the same measures were 3.24 to 31.6 µM and < 3.16 µM.
As for `CC(=O)N1CCC(c2cc(C(F)(F)F)cc3[nH]ncc23)CC1` [Compound 99], the values for the IC50 at IDO and on TDO were 3.24 to 31.6 µM and < 3.16 µM, respectively.
Regarding `CC(=O)N1CCC(c2cccc3[nH]ncc23)CC1(C)C` (stereo not shown) [Compound 190], the IC50 is 3.24 to 31.6 µM at IDO and < 3.16 µM at TDO.
For the compound `O=C(CO)N1CCN(c2cc(Cl)cc3[nH]ncc23)CC1` [Compound 129], the values for the IC50 on IDO and on TDO were 3.24 to 31.6 µM and < 3.16 µM, respectively.
For `CCC(=O)N1CCN(c2cc(Cl)cc3[nH]ncc23)CC1` [Compound 109], the IC50 is 3.24 to 31.6 µM on IDO and < 3.16 µM at TDO.
For the compound `O=S(=O)(Cc1ccccc1)N1CCN(c2cc(Cl)cc3[nH]ncc23)CC1` [Compound 56], the IC50 on IDO is 3.24 to 31.6 µM; on TDO, < 3.16 µM.
For `CS(=O)(=O)N1CCN(c2cc(C(F)(F)F)cc3[nH]ncc23)CC1` [Compound 49] the same measures were 3.24 to 31.6 µM and < 3.16 µM.
In the case of `CC(C)(O)C(=O)N1CCN(c2cc(Cl)cc3[nH]ncc23)CC1` [Compound 111], the figures for the IC50 at IDO and on TDO were 3.24 to 31.6 µM and < 3.16 µM, respectively.
For `COCCn1ncc2c(OC3CCN(S(C)(=O)=O)CC3)cc(Cl)cc21` [Compound 162] the same measures were 32.4 to 100 µM and > 100 µM.
For `CS(=O)(=O)N1CCN(c2ccc3[nH]ncc3c2)CC1` [Compound 43] the same measures were 32.4 to 100 µM and 3.24 to 31.6 µM.
As to `CC(=O)N1CCN(c2cc(Br)cc3[nH]ncc23)CC1` [Compound 76], the values for the IC50 at IDO and on TDO were 3.24 to 31.6 µM and < 3.16 µM, respectively.
For `CNCCNc1cc(Cl)cc2[nH]ncc12` [Compound 156], the IC50 on IDO is 32.4 to 100 µM; on TDO it was 3.24 to 31.6 µM.
As for `CS(=O)(=O)N1CCN(c2cc(Cl)cc3[nH]nc(N)c23)CC1` [Compound 135], the values for the IC50 on IDO and on TDO were 3.24 to 31.6 µM and 32.4 to 100 µM, respectively.
In the case of `CS(=O)(=O)N1CCN(c2cc(-c3ccccc3)cc3[nH]ncc23)CC1` [Compound 33], the IC50 is 32.4 to 100 µM at IDO and 3.24 to 31.6 µM at TDO.
For `OCCc1cc(Cl)cc2[nH]ncc12` [Compound 152] the same measures were > 100 µM and 3.24 to 31.6 µM.
In the case of `CS(=O)(=O)N1CCC(c2cc(C(F)(F)F)cc3[nH]ncc23)CC1` [Compound 100], the IC50 at IDO is 3.24 to 31.6 µM; at TDO, < 3.16 µM.
Take `CN(C)S(=O)(=O)N1CCC(c2cc(Cl)cc3[nH]ncc23)CC1` [Compound 173]: the IC50 was 3.24 to 31.6 µM at IDO and < 3.16 µM on TDO.
